# From patent US20170360743A1, “BIFLAVONE COMPOUND AND USES THEREOF FOR TREATING CANCERS AND PREPARING DRUGS” (FUJIAN MEDICAL UNIVERSITY, priority 2015, published 2017)
# Key:
# [1] = tested on: human chronic myelogenous leukemia cell line (K562); test: MTT inhibition of K562 cancer cell line; assay type: cell-based; conditions: K562, 72 hs
# Description: (§1) 1. Preparing test solutions: taking a certain amount of compounds 5, using dimethyl sulfoxide (DMSO) to dissolve the compound, and using cell growth medium for each corresponding cell line to dilute the solution to 5 concentrations of test solutions: 500, 250, 125, 62.5, 31.25 μg/mL. The positive control doxorubicin were diluted with cell growth medium for each corresponding cell line to 3 concentrations: 5, 2.5, 1.25 μM. Seven human cancer cell lines, including five adhesive cancer cell lines: human gastric cancer cell line (MKN-45), non-small cell lung cancer cell line (A549), nasopharyngeal carcinoma cell line (CNE1, CNE2), large cell lung cancer cell line (PC-9); and two suspensive cancer cell lines: human promyelocytic leukemia cell line (HL60), human chronic myelogenous leukemia cell line (K562). All seven human cancer cell lines are purchased from Shanghai Chinese Academy of Sciences Cell Bank and stored in School of Medicine of Fujian Medical University. The aforementioned seven cancer cell lines were recovered from the liquid nitrogen, and then cultured in 25 cm^2 flasks under the corresponding culture conditions of each cell lines (see Table 2). […] OD was measured with microplate reader under wavelength of 492 nm and then the inhibition rate was calculated. […]
# [2] = tested on: nasopharyngeal carcinoma cell line (CNE1); test: MTT inhibition of CNE1 cancer cell line; assay type: cell-based; conditions: Homo sapiens, CNE1, 72 hs
# Description: as §1
# [3] = tested on: human promyelocytic leukemia cell line (HL60); test: MTT inhibition of HL60 cancer cell line; assay type: cell-based; conditions: HL-60, HL60, 72 hs
# Description: as §1
# A549 cells xenograft = test: In vivo anti-tumor activity, A549 nude mouse model; conditions: for Weights (g) After treatment: body weight after treatment; for Weights (g) Before treatment: body weight before treatment
# Description: The nude mice were fed in the SPF-system, six mice in a cage. The nude mice were provided with standard food and water, maintained in the light and dark cycling conditions (12/12 h), room temperature 25±2° C., humidity 50±10%. The water and beddings were steriled and changed every day. The mice were fed in the maintenance room for a week before the experiments.
# Accurately weighed a certain amount of injection grade doxorubicin powder, added saline to obtain a 0.4 mg/mL test solution. The test solution is prepared avoiding light and handy for use.
# Human non-small cell lung cancer cell line A549 was resuscitated. The ratio of FBS in the culture was increased from 6% to 10%, so as to make the cells proliferated rapidly. When the cell coverage in the culture flask reached 80% or so (i.e., logarithmic growth phase), the A549 cells were digested and suspended. Using autoclaved PBS to wash the cells twice to remove the residual culture medium. And then the cells were resuspended with PBS and adjusted the cells concentration to 1×10^7 cells/mL.
# After the mice accustomed to the environment, under steriled condition, using disposable syringe to transfer A549 cells (1×10^7/mL) and subcutaneously inoculated in the flank of nude mice. 0.2 ml of suspension of A549 cells was injected into each nude mice and the procedure was finished within 30 min. The rest of the cells were subjected to culture and observed for any contamination, so as to provide information on whether the construction of animal model was success.
# After the inoculation of cancer cells was success and the volume of xenograft tumors reached 50 to 100 mm^3, the animals were divided randomly into 5 groups (high dosage, middle dosage, low dosage, positive control, blank control) and each group comprised 6 mice.
# The animals were administered once per day. The injection volume was adjusted according to the weight measured. The animals were administered for 12 days. Positive control group was injected with 2 mg/kg Doxorubicin. The animals were administered once every 3 days, and 4 times in the 12-day period. Blank control group was injected with saline solution.
# During the administration period, the living and mental state of the mice were observed every day. Body weight and tumor size was measured and recorded. The tumor size was measured using Vernier caliper and tumor volumes were calculated using the formula: V (mm^3)=½×L (mm)×W^2 (mm^2) in which L is the length and W is the width of the solid tumor nodules.
# 24 hrs after the last administration, the nude mice were sacrificed and the tumor was removed for volume measurements. Tumor inhibition rate was calculated.
# Each mouse was weighted 24 hours after administration. In the end of the experiment, the mice were sacrifice by treating at the neck area. The tumor was removed for volume measurements and took photos.
# The experimental data were analyzed by SPSS 13.0 software Comparison between groups were carried out by one-way ANOVA or two-sample comparison of U-test. Results were provided in mean±SE, difference with P<0.05 was deemed significant.
# [4] = tested on: human gastric cancer cell line (MKN-45); test: MTT inhibition of MKN-45 cancer cell line; assay type: cell-based; conditions: MKN-45, 72 hs
# Description: as §1
# [5] = tested on: nasopharyngeal carcinoma cell line (CNE2); test: MTT inhibition of CNE2 cancer cell line; assay type: cell-based; conditions: Homo sapiens, CNE-2, CNE2, 72 hs
# Description: as §1
# [6] = Solubility of Compound 5 when preparing the test solution; assay type: physicochemical
# Description: Its water solution (or saline solution) was acidic. […] Suitable co-solvents were selected to enhance the solubility. Studied the solubility enhancing effects of Tween-80 (final concentration 0.02-2%, v/v), PEG-400 (final concentration <40%, v/v), 1, 2-propanediol (final concentration <40%, v/v), glycerol (final concentration <30%, v/v), and CMC-Na (final concentration 1-5%, w/v). […] Considering formulations comprising tween compounds may lead to hemolysis, PEG-400 was selected as the co-solvent.
# [7] = tested on: large cell lung cancer cell line (PC-9); test: MTT inhibition of PC-9 cancer cell line; assay type: cell-based; conditions: Homo sapiens, PC-9, 72 hs
# Description: as §1
# [8] = tested on: non-small cell lung cancer cell line (A549); test: MTT inhibition of A549 cancer cell line; assay type: cell-based; conditions: Homo sapiens, A549, 72 hs
# Description: as §1
# [9] = High dosage 30 mg/kg tail vein once per day, 12 days
# [10] = Low dosage 5 mg/kg tail vein once per day, 12 days
# [11] = Middle dosage 15 mg/kg tail vein once per day, 12 days
# [12] = 2 mg/kg tail vein once every 3 days, 4 times in 12 days
smiles,measurement,setting,value
"O=c1cc(-c2ccc(Oc3c(-c4ccc(O)cc4)oc4cc(O)cc(O)c4c3=O)cc2)oc2cc(O)cc(O)c12 [Compound 5, 3-(4-(5,7-dihydroxy-4-oxo-4H-benzopyran-2-yl)phenoxyl)-5,7-dihydroxy-2-(4-hydroxyphenyl)-4H-benzopyran-4-one]",IC50,[1],16.8 ± 2.8 µg/mL
same,IC50,[2],49.3 ± 2.8 µg/mL
same,IC50,[3],18.3 ± 3 µg/mL
same,toxicity in nude mice,"A549 cells xenograft; 5-30 mg/kg tail vein once per day, 12 days",low
same,Tumor Weight-inhibitions(%),A549 cells xenograft; [9],62.2±21.3%
same,Tumor weights,A549 cells xenograft; [9],0.193 ± 0.056 g
same,Weights (g) After treatment,A549 cells xenograft; [9],24.4 ± 1.6 g
same,Weights (g) Before treatment,A549 cells xenograft; [9],22.4 ± 1.2 g
same,Tumor Weight-inhibitions(%),A549 cells xenograft; [10],36.9±6.1%
same,Tumor weights,A549 cells xenograft; [10],0.305 ± 0.039 g
same,Weights (g) After treatment,A549 cells xenograft; [10],23.4 ± 0.7 g
same,Weights (g) Before treatment,A549 cells xenograft; [10],22.8 ± 0.8 g
same,Tumor Weight-inhibitions(%),A549 cells xenograft; [11],43.7±19.8%
same,Tumor weights,A549 cells xenograft; [11],0.287 ± 0.101 g
same,Weights (g) After treatment,A549 cells xenograft; [11],24.9 ± 1.0 g
same,Weights (g) Before treatment,A549 cells xenograft; [11],23.9 ± 1.5 g
same,IC50,[4],33.2 ± 3.1 µg/mL
same,IC50,[5],13.3 ± 2.6 µg/mL
same,solubility at injection acceptable pH,[6]; pH adjusted to 6.0-8.0,still quite low
same,solubility in water,[6]; water,poorly dissolved in water
same,IC50,[7],21.8 ± 1.3 µg/mL
same,IC50,[8],13.2 ± 0.91 µg/mL
"COc1cccc2c1C(=O)c1c(O)c3c(c(O)c1C2=O)C[C@@](O)(C(=O)CO)C[C@@H]3O[C@H]1C[C@H](N)[C@H](O)[C@H](C)O1 [Doxorubicin, reference compound]",Tumor Weight-inhibitions(%),A549 cells xenograft; [12],56.8±5.6%
same,Tumor weights,A549 cells xenograft; [12],0.220 ± 0.037 g
same,Weights (g) After treatment,A549 cells xenograft; [12],23.6 ± 1.1 g
same,Weights (g) Before treatment,A549 cells xenograft; [12],22.7 ± 1.9 g
